This assay addresses T1, angiotensin II receptor (rat liver membranes) (Rattus norvegicus, UniProt P25095).
T1 construct: from tissue; host or cells: rat liver membranes
T1 sequence (P25095 1-359): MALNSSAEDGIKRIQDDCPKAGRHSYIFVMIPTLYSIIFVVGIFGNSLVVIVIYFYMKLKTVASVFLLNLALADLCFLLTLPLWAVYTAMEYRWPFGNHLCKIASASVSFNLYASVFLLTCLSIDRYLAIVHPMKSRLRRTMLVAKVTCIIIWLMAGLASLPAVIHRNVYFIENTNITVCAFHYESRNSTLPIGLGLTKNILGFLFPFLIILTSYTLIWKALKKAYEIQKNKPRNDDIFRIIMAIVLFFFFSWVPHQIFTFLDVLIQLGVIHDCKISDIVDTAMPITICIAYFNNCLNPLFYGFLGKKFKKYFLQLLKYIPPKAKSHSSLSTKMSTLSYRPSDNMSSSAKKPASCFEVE
Put plainly: RBAT1, Receptor Binding of Angiotensin II: inhibition of tritiated angiotensin II binding to rat liver membranes. As to conditions: in vitro. On the procedure:
The effectiveness of the compounds of the instant invention is determined by a test (RBAT1) entitled Receptor Binding of Angiotensin II.

pIC50: −log10 of the molar value.

With `CCCc1ncc(/C=C2/C(=O)N(CC(=O)O)c3ccccc32)n1Cc1ccc(C(=O)O)cc1` [Example 9, (E)-3-[[3-[(4-carboxyphenyl)methyl]-2-propyl-3H-imidazol-4-yl]methylene]-2,3-dihydro-2-oxo-1H-indole-1-acetic acid], the pIC50 is 7.01.

By pIC50 is commonly meant the IC50 on a negative log10 scale, so that one unit is a factor of ten.

These data come from patent publication US5389661A, “Imidazole and 1,2,4-triazole derivatives with angiotensin II antagonist properties” (Warner-Lambert Company, priority 1994, dated 1995).
